# Source: US20220023258A1, “METHODS OF TREATING CONDITIONS RELATED TO THE S1P1 RECEPTOR” (Arena Pharmaceuticals, Inc., priority 2018, published 2022)
# “Also recorded” adds a separate entry of the source. Where a name gives a salt, the structure may show the parent alone.
# Legend:
# lymphocytes [1] = assay: Multiple ascending dose study: lymphocyte counts; format: in vivo, human; conditions: for Lymphocytes On Treatment Mean (SD) / Lymphocytes Percent Change from Baseline Mean / Lymphocytes Percent Change from Baseline Median / Lymphocytes Percent Change from Baseline Min, Max: day 21
# Description: A randomized, double-blind, placebo-controlled, sequential, ascending, multiple dose study to assess the safety, tolerability, and pharmacokinetics of the L-arginine salt of Compound 1 administered to healthy adult subjects was conducted. This study was designed to evaluate the safety, tolerability, pharmacokinetics, and pharmacodynamics of the L-arginine salt of Compound 1.
# Cohort 1 was dosed with 0.7 mg (by administering two 0.35 mg formulations) for 21 days. Cohort 2 was dosed with 1.35 mg (by administering both a 0.35 mg formulation and a 1 mg formulation) for 21 days. Cohort 3 was dosed with 2.0 mg for 21 days. Cohort 4 was dosed with 0.35 mg for 7 days and then with 2.0 mg for 14 days. Cohort 5 was dosed with 0.5 for 7 days and then with 3.0 mg (by administering both a 1 mg formulation and a 2 mg formulation) for 14 days.
# healthy adult subjects = assay: Multiple ascending dose study: safety and tolerability
# Description: The following safety assessments were conducted: physical examinations with ophthalmoscopy, clinical laboratory tests (serum chemistry, coagulation, and urinalysis), vital signs, continuous telemetry (12 lead ECG), safety ECGs, pulmonary function testing (PFT), serum protein electrophoresis (SPEP) and serum immunoelectrophoresis (IEP), and adverse event reporting.
# lymphocytes [2] = assay: Dose-ranging study in ulcerative colitis: lymphocyte counts; format: in vivo, human; conditions: 12 weeks
# Description: Exploratory endpoints included change from baseline in lymphocyte counts at Weeks 1, 2, 4, 8, and 12; proportion of patients achieving clinical remission at Week 12; and proportion of patients who achieve clinical response at Week 12.
# [3] = 0.35 mg for 7 days then 2.0 mg for 14 days
# [4] = 0.5 mg for 7 days then 3.0 mg for 14 days
smiles,measurement,setting,value
O=C(O)C[C@H]1CCc2c1[nH]c1ccc(OCc3ccc(C4CCCC4)c(C(F)(F)F)c3)cc21 [L-arginine salt of Compound 1],Lymphocytes On Treatment Mean (SD),lymphocytes [1]; [3],0.62 (0.18) 10^3/μl
same,Lymphocytes Percent Change from Baseline Mean,lymphocytes [1]; [3],−67.34%
same,Lymphocytes Percent Change from Baseline Median,lymphocytes [1]; [3],−67.54%
same,"Lymphocytes Percent Change from Baseline Min, Max",lymphocytes [1]; [3],−77.27 to −57.14%
same,Lymphocytes On Treatment Mean (SD),lymphocytes [1]; [4],0.62 (0.25) 10^3/μl
same,Lymphocytes Percent Change from Baseline Mean,lymphocytes [1]; [4],−66.16%
same,Lymphocytes Percent Change from Baseline Median,lymphocytes [1]; [4],−65.02%
same,"Lymphocytes Percent Change from Baseline Min, Max",lymphocytes [1]; [4],−85.19 to −53.85%
same,Lymphocytes On Treatment Mean (SD),lymphocytes [1]; 0.7 mg for 21 days,1.06 (0.28) 10^3/μl
same,Lymphocytes Percent Change from Baseline Mean,lymphocytes [1]; 0.7 mg for 21 days,−41.03%
same,Lymphocytes Percent Change from Baseline Median,lymphocytes [1]; 0.7 mg for 21 days,−40.37%
same,"Lymphocytes Percent Change from Baseline Min, Max",lymphocytes [1]; 0.7 mg for 21 days,−55.56 to −23.08%
same,Lymphocytes On Treatment Mean (SD),lymphocytes [1]; 1.35 mg for 21 days,0.89 (0.32) 10^3/μl
same,Lymphocytes Percent Change from Baseline Mean,lymphocytes [1]; 1.35 mg for 21 days,−53.43%
same,Lymphocytes Percent Change from Baseline Median,lymphocytes [1]; 1.35 mg for 21 days,−51.85%
same,"Lymphocytes Percent Change from Baseline Min, Max",lymphocytes [1]; 1.35 mg for 21 days,−68.75 to −30.77%
same,Lymphocytes On Treatment Mean (SD),lymphocytes [1]; 2.0 mg for 21 days,0.62 (0.18) 10^3/μl
same,Lymphocytes Percent Change from Baseline Mean,lymphocytes [1]; 2.0 mg for 21 days,−68.81%
same,Lymphocytes Percent Change from Baseline Median,lymphocytes [1]; 2.0 mg for 21 days,−69.44%
same,"Lymphocytes Percent Change from Baseline Min, Max",lymphocytes [1]; 2.0 mg for 21 days,−80.00 to −55.56%
same,dose with maximal effect on lymphocyte lowering (dose-dependent),lymphocytes [1]; multiple dosing 21 days,2 mg
same,"mildly abnormal reproducible (NCS) pulmonary function test findings (FEV1 below 80%, FVC) post-dose",healthy adult subjects; 1.35 mg dose,One subject
same,subjects who developed new 1″ degree atrioventricular block,healthy adult subjects; 2 mg group,1 subject
same,subjects with mildly abnormal post-treatment liver function tests (ALT & AST >2× ULN),healthy adult subjects; 2 mg group,1 subject
same,subjects who developed new 1″ degree atrioventricular block,"healthy adult subjects; 0.5, 3 mg group",1 subject
same,subjects with mildly abnormal post-treatment liver function tests (ALT & AST >2× ULN),healthy adult subjects; 0.5 escalating to 3 mg group,1 subject
same,SAEs or deaths,healthy adult subjects; all dose levels,No SAEs or deaths occurred
same,ophthalmoscopy findings,healthy adult subjects; all dose levels,No clinically significant change from baseline
same,"other safety issues (vital signs, ECGs, PFTs, ophthalmoscopy, clinical laboratory tests)",healthy adult subjects; all dose levels,no other clinically significant safety issues
same,second degree heart block,healthy adult subjects; all dose levels,No second degree heart block was found
same,subjects discontinued due to an adverse event,healthy adult subjects; all dose levels,No subjects were discontinued due to an adverse event
same,most common adverse events,"healthy adult subjects; all dose levels, 21 days","contact dermatitis and leukopenia, followed by constipation, diarrhea, nausea, and abdominal pain"
same,severity of adverse events,"healthy adult subjects; all dose levels, 21 days",majority of adverse events were mild
same,tolerability,"healthy adult subjects; all dose levels, 21 days",tolerated at all dose levels; also recorded: well tolerated at all doses tested
same,reduction in lymphocytes relative to placebo,lymphocytes [2]; 1 mg q.d.,37%
same,reduction in lymphocytes relative to placebo,"lymphocytes [2]; 2 mg q.d., p<0.001",57%
